Reference: patent publication US20150329483A1, “Methods and Pharmaceutical Compositions for the Treatment of X-Linked Charcot-Marie-Tooth” (INSERM (Institut National de la Santé et de la Recherche …, priority 2012, published 2015)

Legend:
[1] = tested on: CamKII; settings: cited from earlier work
[2] = tested on: S3 fibroblasts; assay: Centrosome number per cell (γ-tubulin labelling); format: cell-based, mouse; settings: for >centro (percentage of cells with more than two centrosomes) / 2 centro (percentage of cells with two centrosomes) / 1 centro (percentage of cells with one centrosome): S3 fibroblasts cultured with inhibitor; for >centro (percentage of cells with more than two centrosomes): WT 3, untreated S3 18; for 2 centro (percentage of cells with two centrosomes): WT 18, untreated S3 22; for 1 centro (percentage of cells with one centrosome): WT 79%, untreated S3 60%; for Effect on centrosome number per cell, in words: S3 fibroblasts treated with inhibitor
Protocol: (§1) For the isolation of fibroblasts a small fragment of mouse ear was removed, dipped in alcohol solution, cut into small pieces in a sterile Petri dish in the presence of PBS containing fungicide (fonigizon) diluted 1/250, and transferred to 2-ml tubes containing 1 ml dissociation buffer (DMEM plus 20% FBS, 1 mg/ml BSA, 0.5 mg/ml collagenase, 0.25 mg/ml trypsin and penicillin/streptomycin). The tubes were incubated in a water bath with agitation for 1 h at 37° C. Fibroblast medium (DMEM, 10% FBS, 2 mM Gln, 100 U/ml penicillin, 100 μg/ml streptomycin) was added to each tube and the samples were centrifuged at 400 g for 10 min. The cells were re-suspended in fibroblast medium, seeded into Petri dishes and placed in an incubator at 37° C., 5% CO2. The culture medium was replaced every two days. When the cultures reached sub-confluence, the cells were trypsinized and expanded into tissue culture flasks. All experiments were performed using cells between passage numbers four and eight.
Cells were grown on glass coverslips for 24 h to allow cultures to reach 80% confluence. To measure the number of centrosomes, cells were fixed with 4% PFA, permeabilized with methanol at −20° C. for 8 min and blocked with 0.5% Triton X-100 in PBS for 30 min at RT. To detect g-tubulin, cells were incubated overnight at 4° C. with a mouse anti-g-tubulin antibody (GTU-88; Sigma) diluted 1/1000 in PBS containing 0.1% milk and 0.05% Triton X-100. After washing, the cells were incubated for 1 h at RT with Cy3-conjugated goat antimouse IgG secondary antibody (Caltag Laboratories) diluted 1/2000 in PBS containing 0.1% milk and 0.05% Triton X-100. The preparations were counterstained with DAPI in Vectashield mounting medium (Vector Laboratories). Fluorescent images were acquired with a microscope (Leica DMR) equipped with a PL APO objective.
Number of centrosomes per cell. Fibroblasts from WT and S3 have been cultured with or without CamKII inhibitors. Centrosome number per cell has been evaluated as described in methods. […] This experiment has been repeated three time.

[3] = tested on: S3 fibroblasts; assay: Nuclear volume evaluation (DAPI, ImageJ) in cultured fibroblasts; format: cell-based, mouse; settings: for Nuclear Volume: S3 fibroblasts cultured 24 hrs with CamKII inhibitor, WT 8607, untreated S3 15029; for Effect on nuclear (cellular) volume, in words: S3 fibroblasts treated with inhibitor
Protocol: as §1
Nuclei were stained with DAPI and nuclear volume was evaluated with ImageJ software.
Nuclear volume correction. Fibroblasts from Wild type (WT) and S3 transgenic mouse have been cultured for 24 hrs with or without CamKII inhibitors (KN62 and KN93). Nuclear volume has been evaluated using the Imagej software. […] This experiment has been repeated three time.

[4] = tested on: S3 cells; assay: Connexon activity of S3 cells treated with KN62 and KN93 derivatives; format: cell-based, mouse; settings: for Connexon activity at 0.1 μM / Connexon activity at 1 μM / Connexon activity at 10 μM / Connexon activity at 50 μM: 24 hours of treatment
Protocol: Animal cells and wild-type mouse cells transgenic animals S3 created in the as described in EXAMPLE 13 are cultured in 96-well microplates. We have shown that the S3 cells have an abnormality of the connexon activity due to the mutation of connexin 32 introduced in this line. […] The cells were incubated with new molecules and connexon activity was evaluated. […] Regarding KN93 derivatives most substitutions suppress the activity “correction activity connexon” molecules, excepting for a few molecules.
S3 cells were treated with various molecules, at increasing concentrations. Moreover transgenic animals of the same lineage cells and untreated transgenic animals are used as controls. The connexon activity was assessed after 24 hours of treatment. The activity is expressed in thousands of arbitrary fluorescence units. […] As a comparison we use the reference molecule KN 93 at a concentration of 10 μM.

[5] = tested on: G2 transgenic line (mutated human Cx32 G12S); assay: Rotarod locomotor test, G2 transgenic line; format: in vivo, mouse
Protocol: FIG. 4. Mice from the G2 line were treated either with a placebo (4 animals) or with soluble KN93 (4 animals, 1.5 mg/kg, i.p., 1 administration per day) for one month and performances on the rotarod evaluated. Treatment was then stopped and locomotor performances evaluated one month later.
(§2) Transgenic animals received intraperitoneal injections, either with a placebo (0.9% physiological serum) or with KN 93 (1.5 mg/kg). Treatment took place every day for one month.
(§3) Locomotor ability was tested using the rotarod procedure, requiring motor coordination and balance control. A machine manufactured by Bioseb was used for this purpose. A previously used procedure (Norreel et al., 2001) was adapted and two velocities (15 and 25) were used. Briefly, each mouse underwent the same 5-day procedure. The first two days were used to train the animals (five sessions of 2-min walking at a very low speed, i.e. five rotations per minute (r.p.m.)). The last three days were used to run the test sessions. Each day, the mice performed two series of five trials, a training speed with a 1-h rest period between the two series and a 5-min rest period between two consecutive trials. The software provided by Bioseb (Sedacom v1) was used to monitor the time the animals were on the rod.
(§4) Mouse from the G2 transgenic line have been treated either with a placebo (4 animals) or with soluble KN93 (4 animals). Locomotor performances of the animals have been evaluated using the rotarod test after one month of treatment. Performances of WT and G2 treated with KN93, are not statistically different. On the contrary performances of G2 animals treated either with a placebo or with KN93 are highly statistically significant (p value<0.0001). Treatment has been stopped for one month and rotarod performances evaluated. Rotarod performances of KN 93 treated or placebo treated degrade and are not statically different.

[6] = tested on: S3 transgenic line (mutated human Cx32 S26L); assay: Rotarod locomotor test, S3 transgenic line; format: in vivo, mouse
Protocol: as §2, §3
as §4, with “Mouse (4)” for “Mouse”, “S3” for “G2”, “placebo” for “placebo (4 animals)”, “KN93.” for “KN93 (4 animals).”, “statistically” for “statically”

[7] = tested on: S3 fibroblasts; assay: Connexon activity, lucifer yellow uptake, 96 well plate; format: cell-based, mouse
Protocol: FIG. 3. A. Connexon activity in fibroblasts from WT, S3 and S3 treated with KN93 was monitored in a 96 well plate assay, using lucifer yellow as a fluorescent dye (see methods). Fluorescence is in arbitrary units. B, C and D. Connexon activity of WT mouse fibroblasts (B), S3 transgenic mouse (C) and S3 incubated with KN93 (D), were incubated with LY for two hours and examined under a fluorescent microscope.
One hundred thousand cells were cultured as described above for one day with or without CamKII inhibitors (KN62 or KN93 at a final concentration of 10 μM). Lucifer yellow (LY) was added to the medium (final concentration: 110 mM) and incubated for two hours. Fluorescence was recorded using a Perkin Elmer Victor 4 microplaque reader (excitation: 405 nm, emission: 535 nm).
Fibroblasts from WT and S3 (treated or not with KN93) have been cultured for 2 days in 96 wells microplaques. Lucifer yellow has been then added to the medium and fluorescence monitored after 2 hours (cell auto fluorescence and fluorescence of LY without cells, have been evaluated and substracted). This experiment has been repeated three time.

Row | SMILES | >centro (percentage of cells with more than two centrosomes) [2] | 2 centro (percentage of cells with two centrosomes) [2] | 1 centro (percentage of cells with one centrosome) [2] | Effect on centrosome number per cell, in words [2] | Connexon activity at 0.1 μM [4] | Connexon activity at 1 μM [4] | Connexon activity at 10 μM [4] | Connexon activity at 50 μM [4] | further results
1 | COc1ccc(S(=O)(=O)Nc2ccccc2CN(C)C/C=C/c2ccc(Cl)cc2)cc1 [KN92] | 20% | 20% | 60% | unchanged |  |  |  |  | CamKII inhibitory activity, in words [1]: no CamKII inhibitory activity
2 | CN([C@@H](Cc1ccc(OS(=O)(=O)c2cccc3cnccc23)cc1)C(=O)N1CCN(c2ccccc2)CC1)S(=O)(=O)c1cccc2cnccc12 [KN62, 1-[N,Obis(5-isoquinolinesulfonyl)-N-methyl-L-tyrosyl]-4-phenylpiperazine] | 6% | 32% | 62% | returns to close to normal |  |  |  |  | Nuclear Volume [3]: 10100; Effect on nuclear (cellular) volume, in words [3]: restitution of normal cellular volume
3 | COc1ccc(S(=O)(=O)N(CCO)c2ccccc2CN(C)CCCc2ccc(Cl)cc2)cc1 [CM08-40, N-[2-({[3-(4-chlorophenyl)propyl](methyl)amino}methyl)phenyl]-2-hydroxy-S′-(4-methoxyphenyl)ethane-1-sulfonamido] |  |  |  |  | 169 thousands of arbitrary fluorescence units | 169 thousands of arbitrary fluorescence units | 167 thousands of arbitrary fluorescence units | 162 thousands of arbitrary fluorescence units | 
4 | COc1ccc(S(=O)(=O)N(CCO)c2ccccc2CN(C)Cc2ccc3ccccc3c2)cc1 [CM08-18, 2-hydroxy-S-(4-methoxyphenyl)-N′-(2-{[methyl(naphthalen-2-ylmethyl)amino]methyl}phenyl)ethane-1-sulfonamido] |  |  |  |  | 125 thousands of arbitrary fluorescence units | 150 thousands of arbitrary fluorescence units | 162 thousands of arbitrary fluorescence units | 174 thousands of arbitrary fluorescence units | 
5 | COc1ccc(S(=O)(=O)N(CCO)c2ccccc2CN(C)C/C=C/c2ccc(Cl)cc2)cc1 [KN93] | 7% | 20% | 73% | returns to close to normal |  |  |  |  | Nuclear Volume [3]: 11000; Effect on nuclear (cellular) volume, in words [3]: restitution of normal cellular volume; Connexon activity, KN93 reference column ([4]; KN93 10 μM, 24 hours, WT 230, untreated S3 126-129): 191 thousands of arbitrary fluorescence units; Effect on progression of locomotor phenotype, in words ([5]; G2 animals, soluble form 1.5 mg/kg i.p. per day): significantly lowers the progression of the phenotype; Locomotor activity after treatment stopped, in words ([5]; G2 animals, treatment stopped after one month): rapid degradation of the locomotor activity ensued; Mean Minutes on rotarod, W4 treated ([5]; G2 line, 1.5 mg/kg i.p. per day for one month, T0 3.90, W4 placebo 3.20): 3.6 min; Mean Minutes on rotarod, W4 treated + 1 month arrest ([5]; G2 line, one month after stopping treatment, placebo + arrest 2.84): 2.9 min; Degradation of locomotor capacities, in words ([6]; S3 animals, soluble form 1.5 mg/kg i.p. per day): lowered; Locomotion after stopping the treatment, in words ([6]; S3 animals, treatment stopped): strong degradation of locomotion; Mean Minutes on rotarod, W4 treated ([6]; S3 line, 1.5 mg/kg i.p. per day for one month, T0 2.7, W4 placebo 2.1): 2.5 min; Mean Minutes on rotarod, W4 treated + 1 month arrest ([6]; S3 line, one month after stopping treatment, placebo + arrest 1.5): 1.41 min; Effect on connexon activity, in words ([7]; S3 cells treated with KN93): significantly improved though not totally restored; LY intensity ([7]; S3 fibroblasts, KN93 10 μM, fluorescence 2 hours after lucifer yellow, WT 63, untreated S3 17): 28 +/− 9 arbitrary units
6 | COc1ccc(S(=O)(=O)N(CCO)c2ccccc2CN(C)Cc2ccccc2)cc1 [CM08-33, N-(2-{[benzyl(methyl)amino]methyl}phenyl)-2-hydroxy-S′-(4-methoxyphenyl)ethane-1-sulfonamido] |  |  |  |  | 162 thousands of arbitrary fluorescence units | 196 thousands of arbitrary fluorescence units | 189 thousands of arbitrary fluorescence units | 180 thousands of arbitrary fluorescence units | 
7 | COc1ccc(S(=O)(=O)N(CCO)c2ccccc2CN(C)C/C=C/c2ccccc2)cc1 [CM08-16, 2-hydroxy-S-(4-methoxyphenyl)-N′-[2-({methyl[(2E)-3-phenylprop-2-en-1-yl]amino}methyl)phenyl]ethane-1-sulfonamido] |  |  |  |  | 131 thousands of arbitrary fluorescence units | 142 thousands of arbitrary fluorescence units | 159 thousands of arbitrary fluorescence units | 160 thousands of arbitrary fluorescence units | 
